{"source": "patent US6686388B2", "about": "“Regulators of the hedgehog pathway, compositions and uses related thereto” (priority 1999, dated 2004)", "key": {"[1]": {"tested_on": "medulloblastoma cells", "assay": "tritiated thymidine incorporation assay in medulloblastoma cells", "type": "cell-based, mouse", "conditions": "typical assay", "method": "In order to test the effects of cAMP agonists on the proliferation of Hh-pathway tumor cells, primary medulloblastoma cell cultures were similarly treated with forskolin or control vehicle. From 2-3 DIV, bromodeoxyuridine (BrdU) was then added to the cultures, to label proliferating cells. On 3 DIV, cells were fixed with paraformaldehyde. Cells were then immunostained with an antibody to BrdU to identify cells that had been proliferating, and counterstained with bisbenzimide to determine total cell number. The number of total and BrdU(+) cells were then scored in multiple fields in wells of each condition, to determine the percent proliferating cells under different treatments. The scorer was blinded as to the treatments of the cells. […] Similar results were obtained when proliferation was measured using a tritiated thymidine incorporation assay, and other cAMP agents were also found to be effective."}, "[2]": {"tested_on": "Hh signaling", "assay": "Xgal staining of subcutaneous medulloblastoma tumors after drug infusion", "type": "in vivo, mouse", "conditions": "tumor infusion for several days, compared to control (water)", "text": "(§1) To determine whether Hh signaling inhibitors can inhibit tumor growth in vivo, medulloblastoma cells from ptc-1 knockout mice were transplanted subcutaneously into athymic (“nude”) mice. After allowing time for the tumor cells to grow at the injection site, the transplanted mice were divided into groups, and treated with either control vehicle, or cAMP agonist drugs. In one set of experiments, tumors were infused with either H-forskolin, or water as a control. After several days of drug infusion, the mice were sacrificed, and the tumors were sectioned for histology. The transplanted medulloblastoma cells from the ptc knockout mice contain a lacZ transgene (encoding β-galactosidase), the expression of which is induced by Hh signaling. Therefore, the level of β-galactosidase in these cells indicates their level of […] signaling. Thus, in order to determine how effectively the infused drug inhibited Hh signaling in the tumor, the tumor sections were stained for β-galactosidase activity using the substrate Xgal, which stains expressing cells blue."}, "[3]": {"tested_on": "medulloblastoma cells from ptc-1 knockout mice", "assay": "growth of subcutaneous-transplanted medulloblastoma tumors in nude mice", "type": "in vivo, mouse", "text": "as §1\nIn order to determine whether Hh pathway inhibitors can inhibit tumor growth in vivo, cAMP agonists were administered to mice that, as above, had subcutaneous medulloblastoma tumors. In one experiment, one group of mice received daily intraperitoneal injections of forskolin, while control mice received equivalent injections of vehicle (DMSO). The volumes of the tumors were regularly determined by measuring tumor dimensions with a caliper. In the mice treated with DMSO control, the tumors grew much more rapidly than in the mice treated with forskolin. […] In a similar experiment, H-forskolin or control vehicle was administered systemically to mice continuously, via an osmotic minipump that was implanted subcutaneously (and replaced regularly). Again in this experiment (FIG. 13), tumor size was smaller in the H-forskolin-treated mice than in the control mice."}, "[4]": {"tested_on": "medulloblastoma tumor cells", "type": "cell-based, mouse", "method": "These medulloblastoma cells were derived from tumors that arose in the brains of mice heterozygous for an inactivating mutation in the ptc gene (“heterozygous ptc knockout mice”). Mutation of ptc leads to inappropriate activation of the Hh signaling pathway, and in these ptc knockout mice, the ptc mutation results in the occurrence of medulloblastomas. The medulloblastoma tumor cells were placed into primary culture in neuronal culture medium (Basal Medium of Eagle, with 10% calf serum, 25 mM KCl, and 2 mM glutamine). Cells were typically seeded at 0.5 or 1.0×10^6 cells/well of a 24 well plate, in 0.5 ml of medium per well. […] From 2-3 DIV, bromodeoxyuridine (BrdU) was added to the cultures, to label proliferating cells. On 3 DIV, cells were fixed with paraformaldehyde. […] The numbers of total and BrdU(+) cells were then scored in multiple fields in wells of each condition, to determine the percent proliferating cells under different treatments. The scorer was blinded as to the treatments of the cells.\n(§2) To determine the effects of cAMP agonist drugs on the Hedgehog (Hh) signaling pathway in tumor cells, medulloblastoma cells were grown in primary culture. These medulloblastoma brain tumors arose in mice heterozygous for an inactivating mutation in the ptc-1 gene (“heterozygous ptc knockout mice”). Mutation of ptc-1 leads to inappropriate activation of the Hh signaling pathway, and in these ptc-1 knockout mice, the ptc-1 mutation results in the occurrence of medulloblastoma. The medulloblastoma tumor cells were placed into primary culture in neuronal culture medium (Basal Medium of Eagle, with 10% serum, 25 mM KCl, and 2 mM glutamine). Cells were typically seeded at 0.5 or […] cells/well of a 24 well plate, in 0.5 ml of medium. One day after seeding (i.e., on 1 day in vitro, or DIV), cells were treated with forskolin (50 μM final), or an equal amount of vehicle (0.1% DMSO). On 3 DIV, RNA was isolated from the cells, and the expression of the Hh-response gene gli-1 was determined by RT-PCR analysis.\nIn order to test the effects of cAMP agonists on the proliferation of Hh-pathway tumor cells, primary medulloblastoma cell cultures were similarly treated with forskolin or control vehicle. From 2-3 DIV, bromodeoxyuridine (BrdU) was then added to the cultures, to label proliferating cells. On 3 DIV, cells were fixed with paraformaldehyde. […] The number of total and BrdU(+) cells were then scored in multiple fields in wells of each condition, to determine the percent proliferating cells under different treatments. The scorer was blinded as to the treatments of the cells."}, "[5]": {"tested_on": "gli-1", "assay": "gli-1 expression by RT-PCR in primary medulloblastoma cells", "type": "cell-based, mouse", "conditions": "50 μM, RNA on 3 DIV", "method": "as §2"}, "[6]": {"tested_on": "hair development", "assay": "injection of pregnant female mouse, hair development in the fetus", "type": "in vivo", "method": "For these experiments, 20 μl of forskolin in DMSO (50 mM) was injected into a pregnant female mouse daily for E14.5 to E17.5 intraperitoneally. The mouse was sacrificed at E17.5 and the fetuses were removed for gross inspection. The skin from each fetus was processed for H&E staining."}, "[7]": {"tested_on": "hair follicles", "assay": "hydron pellet implantation into ptc-1 lacZ skin punches, 8 days of culture", "type": "cell-based, mouse", "conditions": "implanted pellets, Shh supplied with the culture medium", "method": "FIG. 19 depicts hydron pellet implantation into 3-day mouse ptc-1 lacZ skin punches after 8 days of culture. Ethanol, hydron polymer, and Shh or forskolin in PBS, respectively, were mixed according to the manufacturer's instructions, poured in 2 mm pellet casts and dried/UV-irradiated over night. Alternatively, 3 mg/ml of octylated Shh protein was added to the culture medium (on day 1, 3 and 5) for the medium control as well as the forskolin-pellet implant. 3-day-old skin was harvested from the backs of mouse pups transgenic for ptc-1 lacZ, as identified by lacZ reporter detection using tails, by standard procedures. 6 mm skin punches were taken using Miltex skin punches and incubated for 60 min. Pellets were inserted by carefully separating the dermal from the epidermal layer using forceps. Cultures were grown for 8 days, fixed in lacZ fixative according to standard protocols, rinsed and stained for lacZ over night at 37° C.\nResults: (A) Untreated control, showing a small number of short hairs. […] Hair length and thickness of the dermis thickness are increased as well. Ptc-lacZ, a reporter gene indicative of Shh signaling is induced in follicular as well as basal cells (blue stain), although partially obscured by melanin. […] Note the highly localized area of follicle induction, corresponding to the area adjacent to bead insertion. […]"}, "[8]": {"tested_on": "hair follicle development", "assay": "topical application on newborn Ptc-lacZ mice, skin histology", "type": "in vivo, mouse", "conditions": "5 mM in DMSO topical, twice a day, 7 days", "method": "This effect may be due to the inhibition of the Hh pathway by forskolin, as the Hh pathway plays a critical role in hair follicle development (FIG. 14). Postnatal day 2 mouse pups were used for this experiment. For each pup, 5 μl of DMSO or forskolin in DMSO (5 mM) was applied on the center of the back using a micro-pipette tip. The same procedure is repeated twice, with a total of […] compound applied each time. The procedure was performed on the same animal twice a day for a period of 7 days. The pups were then sacrificed and the skin was taken from the applied area for histology analysis. H&E staining was performed on the paraffin embedded sections."}, "[9]": {"tested_on": "basal cell carcinoma tissue", "assay": "subcutaneous injection near basal cell carcinoma, histology", "type": "in vivo, mouse", "conditions": "subcutaneous near the tumor, once a day, 21 days", "method": "Experiments were conducted to determine the effect of cAMP elevating agents on basal cell carcinoma tissue. A solution of forskolin (50 mM) in ethanol was diluted 1:2 with cremophor (resulting in 50% ethanol/50% cremophor), then diluted 1:5 with PBS or normal saline (resulting in final 10% ethanol/10% cremophor/80% PBS or saline. The solution was administered by subcutaneous injection at different sites near the tumor (e.g., within a few millimeters of the margin), but not into the tumor itself. Treatment continued once a day every 24 hours for 21 days, 1 μl compound/g weight. After treatment, tumor size was measured, and the tumor was removed and analyzed by histology to determine morphological changes. Untreated BCC tissue is depicted in FIG. 16, and forskolin-treated tissue is depicted in FIGS. 17-18."}, "[10]": {"conditions": "10 μM, BrdU 2-3 DIV, fixed 3 DIV, typical experiment"}}, "note": "Like-named read-outs stand apart in the source and are kept apart here.", "data": [{"molecule": "C=CC1(C)CC(=O)C2(O)C(C)(O1)C(OC(=O)CCCN1CCN(C)CC1)C(O)C1C(C)(C)CCC(O)C12C", "note": "(centres unmarked) [H-forskolin, 7-deacetyl-7-[O-(N-methylpiperazino)-gamma-butyryl]-forskolin]", "values": [{"measurement": "inhibition of tritiated thymidine incorporation", "setting": "[1]", "value": 91, "unit": "%"}, {"measurement": "Xgal staining of tumors", "setting": "[2]", "value": "reduced Xgal staining"}, {"measurement": "tumor size", "setting": "[3]; systemic, continuous via subcutaneous osmotic minipump, versus control mice", "value": "smaller"}]}, {"molecule": "CC1=C2C(=O)[C@H]3[C@@H](CC=C4C[C@@H](O)CC[C@@]43C)[C@@H]2CC[C@]12O[C@@H]1C[C@H](C)CN[C@H]1[C@H]2C", "note": "[jervine]", "values": [{"measurement": "inhibition of proliferation of the medulloblastoma cells", "setting": "[4]; 10 μM", "value": "strongly inhibit proliferation"}, {"measurement": "percent proliferation (BrdU(+) cells)", "setting": "[4]; [10]", "value": 0.2, "unit": "%"}]}, {"molecule": "C[C@H]1CC[C@]2(NC1)O[C@H]1C[C@H]3[C@@H]4CC[C@H]5C[C@@H](O)CC[C@]5(C)[C@H]4CC[C@]3(C)[C@H]1[C@@H]2C", "note": "[tomatidine]", "values": [{"measurement": "percent proliferation (BrdU(+) cells)", "setting": "[4]; [10]", "value": 5.9, "unit": "%"}]}, {"molecule": "forskolin", "values": [{"measurement": "gli-1 expression", "setting": "[5]", "value": "strongly inhibit gli-1 expression"}, {"measurement": "hair development in the fetus", "setting": "[6]; 20 μl of 50 mM in DMSO intraperitoneally daily E14.5 to E17.5", "value": "severe disruption of hair development"}, {"measurement": "number of hair follicles in fetal skin", "setting": "[6]; 20 μl of 50 mM in DMSO intraperitoneally daily E14.5 to E17.5, some fetuses", "value": "great reduction of the number of hair follicles"}, {"measurement": "inhibition of tritiated thymidine incorporation", "setting": "[1]", "value": 93, "unit": "%"}, {"measurement": "hair follicles, hair length, pigmentation and dermis thickness", "setting": "[7]", "value": "reduction of hair follicles, hair length, pigmentation and dermis thickness to levels comparable to the control"}, {"measurement": "hair density and hair follicle structure", "setting": "[8]", "value": "decrease of hair density and abnormalities of hair follicle structure"}, {"measurement": "inhibition of proliferation of the medulloblastoma cells", "setting": "[4]; forskolin 50 μM", "value": "strongly inhibit proliferation"}, {"measurement": "inhibition of proliferation", "setting": "[4]; forskolin 50 μM versus DMSO control", "value": 95, "unit": "%"}, {"measurement": "percent proliferation (BrdU(+) cells)", "setting": "[4]; forskolin 50 μM, typical experiment (FIG. 5)", "value": 0.4, "unit": "%"}, {"measurement": "BCC tissue histology", "setting": "[9]", "value": "tumor shrinkage and/or cell death"}, {"measurement": "Xgal staining of tumors", "setting": "[2]", "value": "lower Xgal staining"}, {"measurement": "tumor regression in one treated mouse", "setting": "[3]; daily intraperitoneal injections", "value": "regressed, disappeared, and has not reappeared in over 60 days"}, {"measurement": "tumor growth", "setting": "[3]; daily intraperitoneal injections, versus DMSO", "value": "did not grow excessively large"}]}, {"molecule": "CC1=C2C[C@H]3[C@@H](CC=C4C[C@@H](O)CC[C@@]43C)[C@@H]2CC[C@]12O[C@@H]1C[C@H](C)CN[C@H]1[C@H]2C", "note": "[cyclopamine]", "values": [{"measurement": "inhibition of proliferation of the medulloblastoma cells", "setting": "[4]; 10 μM", "value": "strongly inhibit proliferation"}]}]}
